In patent publication US10479795B2 (Incyte Corporation, priority 2016, dated 2019):
Structures can show the parent of a compound that is named as a salt. Where two headings read alike, the source gives them in different places.

Experiments:
[1] = biological target: PI3Kδ (p110δ/p85α) Recombinant Human Protein (Homo sapiens (Human), UniProt O00329); assay: PI3Kδ Scintillation Proximity Assay; type: biochemical
In short: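 Radiometric read-out: 33P-labelled PIP3 product captured on WGA SPA beads and counted, with IC50 fitted from percent activity relative to DMSO control. Enzyme (3.4 nM) was incubated 120 min at room temperature with 20 μM PIP2 and 2 μM ATP at pH 6.7, 2% DMSO.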

[2] = tested on: Phosphorylated Ribosomal Protein S6 (RPS6); assay: THP-1 RPS6 ELISA Assay; type: cell-based, Human; conditions: THP-1 cells, read-out: PI3Kγ_THP1_RPS6_ELISA IC50
In short: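 IC50 values come from a curve of percent inhibition against log compound concentration, using phospho-RPS6 ELISA (450 nm) on THP-1 lysates. Cells were serum-starved overnight, exposed to compound for 2 h at 37 °C, then challenged 15 min with 10 nM MCP-1.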

[3] = biological target: PI3Kγ (p110γ) Recombinant Human Protein (Homo sapiens (Human), UniProt P48736); assay: PI3K-γ Scintillation Proximity Assay; type: biochemical; conditions: read-out: PI3Kγ IC50
PI3Kγ (p110γ) Recombinant Human Protein, sequence (P48736 whole entry): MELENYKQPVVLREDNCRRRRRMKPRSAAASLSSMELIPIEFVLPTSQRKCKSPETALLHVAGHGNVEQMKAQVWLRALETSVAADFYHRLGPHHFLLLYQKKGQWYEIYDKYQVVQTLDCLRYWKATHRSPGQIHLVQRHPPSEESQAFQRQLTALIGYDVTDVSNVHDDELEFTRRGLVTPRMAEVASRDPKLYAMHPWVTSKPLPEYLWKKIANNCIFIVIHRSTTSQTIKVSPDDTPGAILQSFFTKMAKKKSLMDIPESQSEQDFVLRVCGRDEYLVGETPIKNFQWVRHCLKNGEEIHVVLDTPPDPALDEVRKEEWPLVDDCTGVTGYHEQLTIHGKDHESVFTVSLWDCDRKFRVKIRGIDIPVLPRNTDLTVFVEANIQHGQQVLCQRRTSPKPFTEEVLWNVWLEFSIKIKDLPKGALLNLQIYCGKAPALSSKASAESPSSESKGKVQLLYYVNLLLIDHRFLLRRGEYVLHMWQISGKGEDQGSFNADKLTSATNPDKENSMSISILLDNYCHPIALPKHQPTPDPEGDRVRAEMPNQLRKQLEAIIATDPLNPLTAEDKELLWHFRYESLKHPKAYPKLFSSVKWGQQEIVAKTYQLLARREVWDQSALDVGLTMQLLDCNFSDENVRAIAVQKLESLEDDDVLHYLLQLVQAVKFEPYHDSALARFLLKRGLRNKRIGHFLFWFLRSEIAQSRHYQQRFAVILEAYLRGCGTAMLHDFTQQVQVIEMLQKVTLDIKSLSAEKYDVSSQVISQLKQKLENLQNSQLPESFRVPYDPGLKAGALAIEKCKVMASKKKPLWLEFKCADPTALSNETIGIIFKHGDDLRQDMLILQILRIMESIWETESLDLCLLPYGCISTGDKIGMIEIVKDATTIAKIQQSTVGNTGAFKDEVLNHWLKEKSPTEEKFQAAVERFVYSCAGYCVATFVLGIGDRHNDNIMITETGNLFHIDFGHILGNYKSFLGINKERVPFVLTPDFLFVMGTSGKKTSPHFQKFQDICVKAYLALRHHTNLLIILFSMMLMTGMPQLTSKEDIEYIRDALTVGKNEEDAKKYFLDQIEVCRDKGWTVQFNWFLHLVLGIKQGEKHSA
In short: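 Radiometric SPA readout: […] bound to WGA beads after overnight shaking, IC50 derived from % activity of DMSO control. Reaction used human p110γ, 2 μM ATP, 20 μM PIP2, pH 6.7 MOPS buffer with MgCl2, DTT, CHAPS, 2% DMSO, room temperature.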

PI3Kδ (p110δ/p85α) Recombinant Human Protein, sequence (O00329 whole entry): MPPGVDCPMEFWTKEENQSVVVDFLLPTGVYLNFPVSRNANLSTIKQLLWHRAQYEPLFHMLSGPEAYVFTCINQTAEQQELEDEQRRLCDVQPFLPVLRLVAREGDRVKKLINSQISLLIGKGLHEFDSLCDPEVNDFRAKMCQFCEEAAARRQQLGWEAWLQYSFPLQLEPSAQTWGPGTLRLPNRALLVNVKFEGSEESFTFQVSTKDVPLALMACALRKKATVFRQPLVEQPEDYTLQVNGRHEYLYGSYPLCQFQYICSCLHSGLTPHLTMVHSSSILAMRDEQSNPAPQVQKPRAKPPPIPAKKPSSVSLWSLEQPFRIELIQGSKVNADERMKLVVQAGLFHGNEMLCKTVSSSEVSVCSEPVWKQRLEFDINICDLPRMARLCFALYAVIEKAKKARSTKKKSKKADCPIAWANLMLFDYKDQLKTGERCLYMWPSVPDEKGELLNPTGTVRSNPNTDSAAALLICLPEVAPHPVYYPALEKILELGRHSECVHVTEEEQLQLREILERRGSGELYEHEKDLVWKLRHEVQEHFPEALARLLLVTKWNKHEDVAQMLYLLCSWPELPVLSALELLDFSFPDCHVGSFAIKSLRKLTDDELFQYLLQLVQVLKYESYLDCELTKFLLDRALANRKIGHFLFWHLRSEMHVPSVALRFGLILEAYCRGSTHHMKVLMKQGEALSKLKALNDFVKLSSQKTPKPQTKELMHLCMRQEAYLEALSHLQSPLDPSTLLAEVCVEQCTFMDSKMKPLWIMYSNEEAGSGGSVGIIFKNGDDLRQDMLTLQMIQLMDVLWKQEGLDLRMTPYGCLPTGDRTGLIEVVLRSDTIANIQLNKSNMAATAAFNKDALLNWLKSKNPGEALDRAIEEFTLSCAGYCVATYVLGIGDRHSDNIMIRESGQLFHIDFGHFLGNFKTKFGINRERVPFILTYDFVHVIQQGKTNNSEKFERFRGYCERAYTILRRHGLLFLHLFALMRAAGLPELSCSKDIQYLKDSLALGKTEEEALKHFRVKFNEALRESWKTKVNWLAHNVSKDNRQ
PI3Kδ (p110δ/p85α) Recombinant Human Protein, sequence (P27986 whole entry partner): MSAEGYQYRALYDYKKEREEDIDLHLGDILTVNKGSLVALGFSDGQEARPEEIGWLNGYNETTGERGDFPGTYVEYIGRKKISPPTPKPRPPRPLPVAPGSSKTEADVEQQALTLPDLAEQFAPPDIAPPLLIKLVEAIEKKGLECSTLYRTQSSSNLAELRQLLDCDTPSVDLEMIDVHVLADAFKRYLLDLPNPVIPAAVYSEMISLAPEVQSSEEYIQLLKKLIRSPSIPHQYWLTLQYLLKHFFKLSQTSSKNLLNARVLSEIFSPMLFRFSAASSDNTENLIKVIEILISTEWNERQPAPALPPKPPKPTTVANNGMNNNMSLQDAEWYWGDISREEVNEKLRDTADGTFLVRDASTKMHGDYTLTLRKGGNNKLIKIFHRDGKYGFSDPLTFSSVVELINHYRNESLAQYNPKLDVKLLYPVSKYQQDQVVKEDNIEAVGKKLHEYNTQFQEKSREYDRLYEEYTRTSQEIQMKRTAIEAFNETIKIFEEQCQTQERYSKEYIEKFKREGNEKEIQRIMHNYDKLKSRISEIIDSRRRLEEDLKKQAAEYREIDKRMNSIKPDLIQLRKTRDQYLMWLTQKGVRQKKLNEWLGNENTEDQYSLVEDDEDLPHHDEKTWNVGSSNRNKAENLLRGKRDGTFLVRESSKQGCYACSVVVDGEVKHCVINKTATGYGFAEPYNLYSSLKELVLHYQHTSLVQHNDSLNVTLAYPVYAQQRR

IC50 [1]	IC50 ([2]; Homo sapiens)	IC50 [3]	IC50 [2]	Compound
< 100 nM	100 to 500 nM	< 100 nM		Cc1ccc(S(=O)(=O)NC23CCC(O)(CC2)C3)cc1-c1cnc2c(N)nc(C(F)(F)F)cn12 [Example 444, 3-(8-Amino-6-(trifluoromethyl)imidazo[1,2-a]pyrazin-3-yl)-N-(4-hydroxybicyclo[2.2.1]heptan-1-yl)-4-methylbenzenesulfonamide trifluoroacetate salt]
100 to 500 nM	100 to 500 nM	< 100 nM		Cc1cn2c(-c3cccc(S(=O)(=O)NC45CCC(CO)(C4)C5)c3)cnc2c(N)n1 [Example 381, 3-(8-Amino-6-methylimidazo[1,2-a]pyrazin-3-yl)-N-(4-(hydroxymethyl)bicyclo[2.1.1]hexan-1-yl)benzenesulfonamide]
100 to 500 nM	100 to 500 nM	< 100 nM		Cc1ccc(S(C)(=O)=O)cc1-c1cnc2c(N)nc(-c3cccc(CC#N)c3)cn12 [Example 474, 2-(3-(8-Amino-3-(2-methyl-5-(methylsulfonyl)phenyl)imidazo[1,2-a]pyrazin-6-yl)phenyl)acetonitrile trifluoroacetate]

Second part, the compound before the results:

Compound	IC50 [1]	IC50 ([2]; Homo sapiens)	IC50 [3]	IC50 [2]
Cl.[2H]C([2H])([2H])c1ccc(S(=O)(=O)NC23CCC(C#N)(C2)C3)cc1-c1cnc2c(N)ncnn12 [Example 254, 3-(4-Aminoimidazo[2,1-f][1,2,4]triazin-7-yl)-N-(4-cyanobicyclo[2.1.1]hexan-1-yl)-4-(methyl-d3)benzenesulfonamide crystalline hydrochloric acid salt]	100 to 500 nM	< 100 nM	< 100 nM	
Cc1ccc(S(=O)(=O)NC23CC(Cn4cccn4)(C2)C3)cc1-c1cnc2c(N)ncnn12 [Example 92, N-(3-((1H-pyrazol-1-yl)methyl)bicyclo[1.1.1]pentan-1-yl)-3-(4-aminoimidazo[1,2-f][1,2,4]triazin-7-yl)-4-methylbenzenesulfonamide trifluoroacetate salt]	100 to 500 nM		< 100 nM	< 100 nM
